This is an account of results in ChEMBL document CHEMBL1130335, “Comparative molecular field analysis of a series of paclitaxel analogues” (J Med Chem, 1997).

The assay can be described thus: Measured activity expressed as ID50 (analogue)/ID50 (paclitaxel), where ID50 is the concentration of compound leading to 50% inhibition of the rate microtubule disassembly. The class given is functional.

In turn, `CC(=O)O[C@H]1C(=O)[C@]2(C)[C@@H](O)CC3OC[C@@]3(OC(C)=O)[C@H]2[C@H](OC(=O)c2ccccc2)[C@]2(O)C[C@H](OC(=O)[C@H](NC(=O)c3ccccc3)[C@H](O)c3ccccc3)C(C)=C1C2(C)C` (some centres not stated) yielded an Activity of 10.

Take `CC(=O)O[C@@]12COC1C[C@H](O)[C@@]1(C)C(=O)[C@H](O)C3=C(C)[C@@H](OC(=O)C(O)C(O)c4ccccc4)C[C@@](O)([C@@H](OC(=O)c4ccccc4)[C@@H]12)C3(C)C` (some centres not stated): the Activity turned out to be 3.

Compound `CC(=O)O[C@H]1C(=O)[C@]2(C)[C@@H](O)CC3OC[C@@]3(OC(C)=O)[C@H]2[C@H](OC(=O)c2ccccc2)[C@]2(O)C[C@H](OC(=O)[C@@H](NC(=O)c3ccccc3)[C@@H](O)c3ccccc3)C(C)=C1C2(C)C` (some centres not stated) showed an Activity of 110.

`CC(=O)O[C@@]12COC1C[C@H](O)[C@@]1(C)C(=O)[C@H](O)C3=C(C)[C@@H](OC(=O)[C@H](O)[C@H](NC(=O)OC(C)(C)C)c4ccccc4)C[C@@](O)([C@@H](OC(=O)c4ccccc4)[C@@H]12)C3(C)C` (some centres not stated) gave an Activity of 0.6.

`CCCC[C@H](NC(=O)OC(C)(C)C)[C@@H](O)C(=O)O[C@H]1C[C@@]2(O)[C@@H](OC(=O)c3ccccc3)[C@H]3[C@@](C)([C@@H](O)CC4OC[C@]43OC(C)=O)[C@@H](O)[C@H](OC(C)=O)C(=C1C)C2(C)C` (some centres not stated) had an Activity of 9.74.

Compound `CC(=O)O[C@H]1C(=O)[C@]2(C)[C@@H](O)CC3OC[C@@]3(OC(C)=O)[C@H]2[C@H](OC(=O)c2ccccc2)[C@]2(O)C[C@H](OC(=O)[C@H](O)[C@H](NC(=O)CC(C)C)c3ccccc3)C(C)=C1C2(C)C` (some centres not stated) yielded an Activity of 1.9.

In the case of `CC(=O)O[C@H]1C(=O)[C@]2(C)[C@@H](O)CC3OC[C@@]3(OC(C)=O)[C@H]2[C@H](OC(=O)c2ccccc2)[C@]2(O)C[C@H](OC(=O)[C@@H](O)[C@@H](NC(=O)OC(C)(C)C)c3ccccc3)C(C)=C1C2(C)C` (some centres not stated), the Activity came out at 30.

As to `CO[C@H]1[C@H](OC(C)=O)C2=C(C)[C@@H](OC(=O)[C@H](O)[C@@H](NC(=O)c3ccccc3)c3ccccc3)C[C@@](O)([C@@H](OC(=O)c3ccccc3)[C@H]3[C@@]1(C)[C@@H](O)CC1OC[C@]13OC(C)=O)C2(C)C` (some centres not stated), the Activity came out at 0.35.

In turn, `CC(=O)O[C@@]12COC1C[C@H](O)[C@@]1(C)C(=O)[C@H](O)C3=C(C)[C@@H](OC(=O)[C@H](O)[C@@H](CC(C)(C)C)NC(=O)OC(C)(C)C)C[C@@](O)([C@@H](OC(=O)c4ccccc4)[C@@H]12)C3(C)C` (some centres not stated) yielded an Activity of 1.45.

In turn, `CC(=O)O[C@@]12COC1C[C@H](O)[C@@]1(C)C(=O)[C@H](O)C3=C(C)[C@@H](OC(=O)[C@H](O)[C@@H](NC(=O)OC(C)(C)C)c4ccccc4)[C@H](O)[C@@](O)([C@@H](OC(=O)c4ccccc4)[C@@H]12)C3(C)C` (some centres not stated) yielded an Activity of 0.8.

As for `CC(=O)O[C@@]12COC1C[C@H](O)[C@@]1(C)C(=O)C[C@@]34O[C@]3(C)[C@@H](OC(=O)[C@H](O)[C@@H](NC(=O)c3ccccc3)c3ccccc3)C[C@@](O)([C@@H](OC(=O)c3ccccc3)[C@@H]12)C4(C)C` (some centres not stated), the Activity was 0.66.

`CC(=O)O[C@@]12COC1C[C@H](O)[C@@]1(C)C(=O)[C@H](O)C3=C(C)[C@@H](OC(=O)[C@@H](O)[C@H](N)c4ccccc4)C[C@@](O)([C@@H](OC(=O)c4ccccc4)[C@@H]12)C3(C)C` (some centres not stated) yielded an Activity of 30.

Turning to `CC(=O)O[C@H]1C(=O)[C@]2(C)[C@@H](O)CC3OC[C@@]3(OC(C)=O)[C@H]2[C@H](OC(=O)c2ccccc2)[C@]2(O)C[C@H](OC(=O)[C@H](O)[C@H](NC(=O)c3ccc(C)cc3)c3ccccc3)C(C)=C1C2(C)C` (some centres not stated), the Activity came out at 1.1.

`CC(=O)O[C@H]1C(=O)[C@]2(C)[C@@H](O)CC3OC[C@@]3(OC(C)=O)[C@H]2[C@H](OC(=O)c2ccccc2)[C@]2(O)C[C@H](OC(=O)[C@H](O)[C@@H](NC(=O)c3ccccc3)C3CCCCC3)C(C)=C1C2(C)C` (some centres not stated) returned an Activity of 0.29.

The compound `CC(=O)O[C@H]1C(=O)[C@]2(C)[C@@H](O)CC3OC[C@@]3(OC(C)=O)[C@H]2[C@H](OC(=O)c2ccccc2)[C@]2(O)C[C@H](OC(=O)[C@H](O)[C@H](NC(=O)c3ccccc3)c3ccccn3)C(C)=C1C2(C)C` (some centres not stated) showed an Activity of 0.7.

The compound `CC(=O)O[C@@]12COC1C[C@H](O)[C@@]1(C)C(=O)[C@H](O)C3=C(C)[C@@H](OC(=O)[C@H](O)Cc4ccccc4)C[C@@](O)([C@@H](OC(=O)c4ccccc4)[C@@H]12)C3(C)C` (some centres not stated) returned an Activity of 4.5.

Take `CO[C@H]1CC2OC[C@@]2(OC(C)=O)[C@H]2[C@H](OC(=O)c3ccccc3)[C@]3(O)C[C@H](OC(=O)[C@H](O)[C@@H](NC(=O)c4ccccc4)c4ccccc4)C(C)=C([C@@H](OC(C)=O)[C@H](O)[C@]12C)C3(C)C` (some centres not stated): the Activity was 0.92.

For the compound `CC(=O)O[C@H]1C(=O)[C@]2(C)[C@@H](O)CC3OC[C@@]3(OC(C)=O)[C@H]2[C@H](OC(=O)c2ccccc2)[C@]2(O)C[C@H](OC(=O)[C@H](O)[C@H](NC(=O)c3ccccc3)c3ccc(Cl)cc3)C(C)=C1C2(C)C` (some centres not stated), the Activity was found to be 2.4.

Take `CC(=O)O[C@@]12COC1C[C@H](O)[C@@]1(C)C(=O)[C@H](O)C3=C(C)[C@@H](OC(=O)[C@H](O)[C@H](NC(=O)N(C)c4ccc[nH]4)C(C)(C)C)C[C@@](O)([C@@H](OC(=O)c4ccccc4)[C@@H]12)C3(C)C` (some centres not stated): the Activity was found to be 0.96.

The compound `CO[C@H]1[C@H](OC(C)=O)C2=C(C)[C@@H](OC(=O)[C@H](O)[C@@H](NC(=O)OC(C)(C)C)c3ccccc3)C[C@@](O)([C@@H](OC(=O)c3ccccc3)[C@H]3[C@@]1(C)[C@@H](O)CC1OC[C@]13OC(C)=O)C2(C)C` (some centres not stated) showed an Activity of 0.51.

For `CC(=O)O[C@H]1C(=O)[C@]2(C)[C@@H](O)CC3OC[C@@]3(OC(C)=O)[C@H]2[C@H](OC(=O)c2ccccc2)[C@]2(O)C[C@H](OC(=O)[C@H](O)[C@H](NC(=O)c3ccccc3)c3ccc(Cl)c(Cl)c3)C(C)=C1C2(C)C` (some centres not stated), the Activity amounted to 7.1.

The compound `CC(=O)O[C@@]12COC1C[C@H](O)[C@@]1(C)C(=O)[C@H](O)C3=C(C)[C@@H](OC(=O)[C@@H](NC(=O)OC(C)(C)C)[C@@H](O)c4ccccc4)C[C@@](O)([C@@H](OC(=O)c4ccccc4)[C@@H]12)C3(C)C` (some centres not stated) displayed an Activity of 160.

The compound `CC(=O)O[C@H]1C(=O)[C@]2(C)[C@@H](O)CC3OC[C@@]3(OC(C)=O)[C@H]2[C@H](OC(=O)c2ccccc2)[C@]2(O)C[C@H](OC(=O)[C@H](O)[C@H](NC(=O)c3ccc(C(F)(F)F)cc3)c3ccccc3)C(C)=C1C2(C)C` (some centres not stated) registered an Activity of 6.

`CC(=O)O[C@H]1C(=O)[C@]2(C)[C@@H](O)CC3OC[C@@]3(OC(C)=O)[C@H]2[C@H](OC(=O)c2ccccc2)[C@]2(O)C[C@H](OC(=O)C(O)C(C)O)C(C)=C1C2(C)C` (some centres not stated) had an Activity of 60.

In the case of `COC(=O)[C@@H](C(=O)O[C@H]1C[C@@]2(O)[C@@H](OC(=O)c3ccccc3)[C@H]3[C@](C)(C(=O)[C@H](O)C(=C1C)C2(C)C)[C@@H](O)CC1OC[C@]13OC(C)=O)[C@H](NC(=O)OC(C)(C)C)c1ccccc1` (some centres not stated), the Activity stood at 10.

Take `CC[C@H](NC(=O)OC(C)(C)C)[C@@H](O)C(=O)O[C@H]1C[C@@]2(O)[C@@H](OC(=O)c3ccccc3)[C@H]3[C@@](C)([C@@H](O)CC4OC[C@]43OC(C)=O)[C@@H](O)[C@H](OC(C)=O)C(=C1C)C2(C)C` (some centres not stated): the Activity turned out to be 0.61.

For the compound `CC(=O)O[C@@H]1C2=C(C)[C@@H](OC(=O)[C@H](O)[C@@H](NC(=O)c3ccccc3)c3ccccc3)C[C@@](O)([C@@H](OC(=O)c3ccccc3)[C@H]3[C@@](C)([C@@H](O)CC4OC[C@]43OC(C)=O)[C@H]1O)C2(C)C` (some centres not stated), the Activity came to 0.86.

Compound `CC(=O)O[C@H]1C(=O)[C@]2(C)[C@@H](O)CC3OC[C@@]3(OC(C)=O)[C@H]2[C@H](OC(=O)c2ccccc2)[C@]2(O)C[C@H](OC(=O)[C@H](O)[C@H](N)c3ccccc3)C(C)=C1C2(C)C` (some centres not stated) registered an Activity of 44.

In turn, `COc1ccc([C@@H](NC(=O)c2ccccc2)[C@@H](O)C(=O)O[C@H]2C[C@@]3(O)[C@@H](OC(=O)c4ccccc4)[C@H]4[C@](C)(C(=O)[C@H](OC(C)=O)C(=C2C)C3(C)C)[C@@H](O)CC2OC[C@]24OC(C)=O)cc1` (some centres not stated) yielded an Activity of 0.5.

As to `COc1ccc(C(=O)N[C@H](c2ccccc2)[C@@H](O)C(=O)O[C@H]2C[C@@]3(O)[C@@H](OC(=O)c4ccccc4)[C@H]4[C@](C)(C(=O)[C@H](OC(C)=O)C(=C2C)C3(C)C)[C@@H](O)CC2OC[C@]24OC(C)=O)cc1` (some centres not stated), the Activity came to 0.5.

`CC(=O)O[C@H]1C(=O)[C@]2(C)[C@@H](O)CC3OC[C@@]3(OC(C)=O)[C@H]2[C@H](OC(=O)c2ccccc2)[C@]2(O)C[C@H](OC(=O)[C@H](O)[C@H](NC(=O)CC(C)(C)C)c3ccccc3)C(C)=C1C2(C)C` (some centres not stated) gave an Activity of 0.7.

`COC(=O)[C@H]1CC2OC[C@@]2(OC(C)=O)[C@H]2[C@H](OC(=O)c3ccccc3)[C@]3(O)C[C@H](OC(=O)[C@H](O)[C@@H](NC(=O)c4ccccc4)c4ccccc4)C(C)=C([C@@H](OC(C)=O)[C@H](C(=O)OC)[C@]12C)C3(C)C` (some centres not stated) yielded an Activity of 0.91.

`CC(=O)O[C@H]1C(=O)[C@]2(C)[C@@H](O)CC3OC[C@@]3(OC(C)=O)[C@H]2[C@H](OC(=O)c2ccccc2)[C@]2(O)C[C@H](OC(=O)[C@H](O)[C@H](NC(=O)C(C)=O)c3ccccc3)C(C)=C1C2(C)C` (some centres not stated) had an Activity of 3.5.

Compound `CC(=O)O[C@@H]1C2=C(C)[C@@H](OC(=O)[C@H](O)[C@H](C)NC(=O)OC(C)(C)C)C[C@@](O)([C@@H](OC(=O)c3ccccc3)[C@H]3[C@@](C)([C@@H](O)CC4OC[C@]43OC(C)=O)[C@H]1O)C2(C)C` (some centres not stated) returned an Activity of 1.08.

In the case of `CC(=O)O[C@@]12COC1C[C@H](O)[C@@]1(C)C(=O)[C@H](O)C3=C(C)[C@@H](OC(=O)[C@H](NC(=O)OC(C)(C)C)[C@H](O)c4ccccc4)C[C@@](O)([C@@H](OC(=O)c4ccccc4)[C@@H]12)C3(C)C` (some centres not stated), the Activity stood at 10.

The compound `CC(=O)O[C@H]1C(=O)[C@]2(C)[C@@H](O)CC3OC[C@@]3(OC(C)=O)[C@H]2[C@H](OC(=O)c2ccccc2)[C@]2(O)C[C@H](OC(=O)[C@H](NC(=O)OC(C)(C)C)[C@H](O)c3ccccc3)C(C)=C1C2(C)C` (some centres not stated) displayed an Activity of 10.

`CC(=O)O[C@H]1C(=O)[C@]2(C)[C@@H](O)CC3OC[C@@]3(OC(C)=O)[C@H]2[C@H](OC(=O)c2ccccc2)[C@]2(O)C[C@H](OC(=O)[C@H](O)[C@H](NC(=O)c3ccccc3)c3ccco3)C(C)=C1C2(C)C` (some centres not stated) returned an Activity of 0.9.
